In PubChem BioAssay AID1195 (EPA DSSTox, 2008) one finds maximum recommended daily dose (mmol/kg-bw/day) data, which are given here for 70 compounds.

This series deals with human maximum recommended daily dose, FDA database. In words: DSSTox (FDAMDD) FDA Maximum (Recommended) Daily Dose Database. The settings on record: active compounds read low. The procedure, abridged:
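MRDD values come from clinical trials with daily oral dosing, usually for 3–12 months, for the average adult, in mg/day converted to mg/kg-bw/day assuming 60 kg. Antineoplastic mg/m2 doses are divided by 37. Activity score maps log10(1/MRDD mmol) onto 1–100.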

Setting [1] is: TherapeuticCategory: skeletal muscle relaxant.
[2] abbreviates: TherapeuticCategory: antihypertensive.
Setting [3] is: TherapeuticCategory: cardiotonic.
Setting [4] is: TherapeuticCategory: antihypertensive, antianginal.
[5] abbreviates: TherapeuticCategory: anti inflammatory.
Setting [6] is: TherapeuticCategory: anxiolytic.
[7] abbreviates: TherapeuticCategory: antineoplastic.
The mark [8] stands for this setting: TherapeuticCategory: anticonvulsant.
The mark [9] stands for this setting: TherapeuticCategory: antibacterial.
Where [10] appears, read: TherapeuticCategory: antidepressant.
The mark [11] stands for this setting: TherapeuticCategory: diagnostic aid.

For the compound `CCC1(c2ccccc2)C(=O)NC(=O)N(C)C1=O` (stereo not given), the maximum recommended daily dose (mmol/kg-bw/day) (TherapeuticCategory: anticonvulsant, sedative, hypnotic) was 0.0406. Consider `O=C1CN(/N=C/c2ccc(-c3ccc([N+](=O)[O-])cc3)o2)C(=O)N1`, for which, under setting [1], the maximum recommended daily dose (mmol/kg-bw/day) was 0.0212. Take `CN1CCN(CCC=C2c3ccccc3Sc3ccc(S(=O)(=O)N(C)C)cc32)CC1`: the maximum recommended daily dose (mmol/kg-bw/day) (TherapeuticCategory: antipsychotic, dopamine receptor antagonist) is 0.00113. As for `Cn1c(=O)c2c(ncn2C)n(C)c1=O`, the maximum recommended daily dose (mmol/kg-bw/day) (TherapeuticCategory: CNS stimulant) is 0.0515. Take `C[N+](C)(C)C[C@H](O)CC(=O)[O-]`: the maximum recommended daily dose (mmol/kg-bw/day) (TherapeuticCategory: antihyperlipoproteinemic) is 0.307. `CCC(=O)OC(OP(=O)(CCCCc1ccccc1)CC(=O)N1C[C@H](C2CCCCC2)C[C@H]1C(=O)O)C(C)C` (stereo not given in full): the maximum recommended daily dose (mmol/kg-bw/day) under setting [2] is 0.00236. For the compound `CC(C)(C)c1cc(O)ccc1O`, the maximum recommended daily dose (mmol/kg-bw/day) (TherapeuticCategory: antioxidant) was 0.0012. On to `Cc1ncc2n1-c1ccc(Cl)cc1C(c1ccccc1F)=NC2`, for which, for the setting “TherapeuticCategory: anesthetic”, the maximum recommended daily dose (mmol/kg-bw/day) is 0.000256.

Take `CC(C)NCC(O)COc1ccc(O)cc1` (stereo not given): the maximum recommended daily dose (mmol/kg-bw/day) under setting [3] was 0.00148.

In the case of `COc1ccccc1OCCNCC(O)COc1cccc2[nH]c3ccccc3c12` (stereo not given), the maximum recommended daily dose (mmol/kg-bw/day) under setting [4] is 0.00103. Consider `CCN(CC)C(C)CN1c2ccccc2Sc2ccccc21` (stereo not given), for which, under “TherapeuticCategory: antiparkinsonian, anticholinergic”, the maximum recommended daily dose (mmol/kg-bw/day) was 0.032.

With `CC(C)=CCC1C(=O)N(c2ccccc2)N(c2ccccc2)C1=O`, the maximum recommended daily dose (mmol/kg-bw/day) under setting [5] was 0.039. As to `CN=C1CN(O)C(c2ccccc2)=c2cc(Cl)ccc2=N1`, under setting [6], the maximum recommended daily dose (mmol/kg-bw/day) was 0.00557. For the compound `COc1cccc2c1C(=O)c1c(O)c3c(c(O)c1C2=O)C[C@@](O)(C(=O)CO)C[C@@H]3O[C@H]1C[C@H](N)[C@@H](O)[C@H](C)O1`, the maximum recommended daily dose (mmol/kg-bw/day) under setting [7] is 0.00447. On to `CCC1(CC)C(=O)NC(=O)N(C)C1=O`, for which the maximum recommended daily dose (mmol/kg-bw/day) under setting [8] was 0.0252.

Take `O=C(O)c1ccccc1C(=O)Nc1ccc(S(=O)(=O)Nc2nccs2)cc1`: the maximum recommended daily dose (mmol/kg-bw/day) under setting [9] was 0.496. As to `Fc1ccc([C@@H]2CCNC[C@H]2COc2ccc3c(c2)OCO3)cc1`, the maximum recommended daily dose (mmol/kg-bw/day) under setting [10] is 0.00253. On to `CC1=C(/C=C/C(C)=C/C=C/C(C)=C/CO)C(C)(C)CCC1`, for which, where the note is “TherapeuticCategory: antixerophthalmic vitamin”, the maximum recommended daily dose (mmol/kg-bw/day) is 0.0032. `CCOC(=O)CCCCCCCCC(C)c1ccccc1I` (stereo not given): the maximum recommended daily dose (mmol/kg-bw/day) under setting [11] is 0.3. Turning to `NC(=O)CC[C@H](N)C(=O)O`, the maximum recommended daily dose (mmol/kg-bw/day) (TherapeuticCategory: none) was 1.37.

For `CC(=O)N(O)CCCCCNC(=O)CCC(=O)N(O)CCCCCNC(=O)CCC(=O)N(O)CCCCCN`, the maximum recommended daily dose (mmol/kg-bw/day) (TherapeuticCategory: parenteral chelating agent) was 0.178.

For `O=C(O)C(O)c1ccccc1` (stereo not given), for the setting “TherapeuticCategory: urinary antiseptic”, the maximum recommended daily dose (mmol/kg-bw/day) was 0.438. Turning to `CC(=O)O[C@H]1C[C@H](O[C@H]2[C@@H](O)C[C@H](O[C@H]3[C@@H](O)C[C@H](OC4CC[C@@]5(C)C(CC[C@@H]6[C@@H]5C[C@@H](O)[C@]5(C)[C@@H](C7=CC(=O)OC7)[C@@H](O)C[C@]65O)C4)O[C@@H]3C)O[C@@H]2C)O[C@H](C)[C@H]1O[C@@H]1O[C@H](CO)[C@@H](O)[C@H](O)[C@H]1O` (stereo not given in full), the maximum recommended daily dose (mmol/kg-bw/day) under setting [3] is 3.33e-05. Regarding `NCCCC[C@H](N)C(=O)O`, the maximum recommended daily dose (mmol/kg-bw/day) (TherapeuticCategory: nutrient) is 0.684. For the compound `CCC(C)C(C)(COC(N)=O)COC(N)=O` (stereo not given), the maximum recommended daily dose (mmol/kg-bw/day) under setting [2] was 0.0861. Take `O=C(O)[C@H]1/C(=C/CO)O[C@@H]2CC(=O)N21`: under setting [9], the maximum recommended daily dose (mmol/kg-bw/day) was 0.0314. Consider `Cn1c(=O)c2c(ncn2CCCNCC(O)c2cc(O)cc(O)c2)n(C)c1=O` (stereo not given), for which, under “TherapeuticCategory: bronchodilator”, the maximum recommended daily dose (mmol/kg-bw/day) is 0.00257. As to `C#CCN(C)Cc1ccccc1`, the maximum recommended daily dose (mmol/kg-bw/day) under setting [2] was 0.0209. Regarding `C#C[C@]1(O)CC[C@H]2[C@@H]3[C@H](C)CC4=C(CCC(=O)C4)[C@H]3CC[C@@]21C`, where the note is “TherapeuticCategory: treatment of menopausal syndrome”, the maximum recommended daily dose (mmol/kg-bw/day) was 0.000133. On to `CN(C)C=Nc1c(I)cc(I)c(CCC(=O)O)c1I`, for which the maximum recommended daily dose (mmol/kg-bw/day) under setting [11] was 0.167. For the compound `CCOC(=O)C1=C(C)NC(C)=C(C(=O)OC)C1c1cccc([N+](=O)[O-])c1` (stereo not given), under setting [2], the maximum recommended daily dose (mmol/kg-bw/day) was 0.000924. On to `CC(N)C12CC3CC(CC(C3)C1)C2` (stereo not given), for which the maximum recommended daily dose (mmol/kg-bw/day) (TherapeuticCategory: antiviral) is 0.0186.

Regarding `CCC1(C)OC(=O)N(C)C1=O` (stereo not given), under setting [8], the maximum recommended daily dose (mmol/kg-bw/day) was 0.255.

With `NC(=O)NNc1ccccc1`, the maximum recommended daily dose (mmol/kg-bw/day) (TherapeuticCategory: antipyretic) was 0.165. `O=C1CC2(CCCC2)CC(=O)N1CCCCN1CCN(c2ncccn2)CC1`: the maximum recommended daily dose (mmol/kg-bw/day) under setting [6] was 0.00259. In the case of `Cc1cccc(Nc2ccccc2C(=O)O)c1C`, the maximum recommended daily dose (mmol/kg-bw/day) under setting [5] was 0.0862.

For `CCN(CCCCOC(=O)c1ccc(OC)c(OC)c1)C(C)Cc1ccc(OC)cc1` (stereo not given), the maximum recommended daily dose (mmol/kg-bw/day) (TherapeuticCategory: antispasmodic) was 0.0157. For `Clc1cccc(Cl)c1NC1=NCCN1`, under setting [2], the maximum recommended daily dose (mmol/kg-bw/day) is 0.000174. In the case of `CN[C@H]1CC[C@@H](c2ccc(Cl)c(Cl)c2)c2ccccc21`, the maximum recommended daily dose (mmol/kg-bw/day) under setting [10] was 0.0109.

On to `CCn1nc(C(=O)O)c(=O)c2cc3c(cc21)OCO3`, for which the maximum recommended daily dose (mmol/kg-bw/day) under setting [9] is 0.0637. Turning to `CN(C)CCC=C1c2ccccc2CCc2ccccc21`, under setting [10], the maximum recommended daily dose (mmol/kg-bw/day) is 0.018. `CCN(CC)CCOCCOC(=O)C1(c2ccccc2)CCCC1`: for the setting “TherapeuticCategory: antitussive”, the maximum recommended daily dose (mmol/kg-bw/day) was 0.006. For `CN(C)c1nc(N(C)C)nc(N(C)C)n1`, under setting [7], the maximum recommended daily dose (mmol/kg-bw/day) was 0.0257. Take `CCCC(=O)N1CCCN(c2nc(N)c3cc(OC)c(OC)cc3n2)CC1`: under setting [2], the maximum recommended daily dose (mmol/kg-bw/day) was 0.000134. With `C[C@]12CC[C@@H]3c4ccc(OC(=O)c5ccccc5)cc4CC[C@H]3[C@@H]1CC[C@@H]2O`, the maximum recommended daily dose (mmol/kg-bw/day) (TherapeuticCategory: estrogen) was 0.00133. As to `O=C1O[C@H]([C@@H](O)CO)C(O)=C1O`, the maximum recommended daily dose (mmol/kg-bw/day) (TherapeuticCategory: vitamin C deficiency) was 0.568. With `CCC(C)(C)N=C(N)NC#N`, under setting [2], the maximum recommended daily dose (mmol/kg-bw/day) is 0.0674. For the compound `C=CCC1(C(C)CCC)C(=O)N=C(O)NC1=O` (stereo not given), the maximum recommended daily dose (mmol/kg-bw/day) (TherapeuticCategory: sedative, hypnotic) was 0.0128. In the case of `OC1OC[C@@H](O)[C@H](O)[C@H]1O` (stereo not given in full), the maximum recommended daily dose (mmol/kg-bw/day) (TherapeuticCategory: intestinal function diagnostic aid) was 2.78.

For the compound `CC(=O)OCC(=O)[C@@]1(O)CC[C@H]2[C@@H]3C[C@H](C)C4=CC(=O)C=C[C@]4(C)[C@H]3[C@@H](O)C[C@@]21C`, the maximum recommended daily dose (mmol/kg-bw/day) (TherapeuticCategory: glucocorticoid) is 0.01. As to `Oc1c(Cl)cc(Cl)c2cccnc12`, where the note is “TherapeuticCategory: antiseborrhetic”, the maximum recommended daily dose (mmol/kg-bw/day) was 0.312. With `CCOC(=O)/C=C(C)/C=C/C=C(C)/C=C/c1c(C)cc(OC)c(C)c1C`, the maximum recommended daily dose (mmol/kg-bw/day) (TherapeuticCategory: antipsoriatic) is 0.00423.

Consider `CC[N+](CC)(CCNC(=O)C(=O)NCC[N+](CC)(CC)Cc1ccccc1Cl)Cc1ccccc1Cl`, for which, for the setting “TherapeuticCategory: cholinesterase inhibitor”, the maximum recommended daily dose (mmol/kg-bw/day) was 0.00274. As for `NC(Cc1ccccc1)C(=O)O` (stereo not given), the maximum recommended daily dose (mmol/kg-bw/day) under setting [9] is 0.605. Turning to `COC(=O)C1=C(C)NC(C)=C(C(=O)OC(C)C)C1c1cccc2nonc12` (stereo not given), the maximum recommended daily dose (mmol/kg-bw/day) under setting [4] was 0.00045. `C=CCN(C1=NCCN1)c1c(Cl)cccc1Cl`: for the setting “TherapeuticCategory: antiarrhythmic”, the maximum recommended daily dose (mmol/kg-bw/day) is 0.00492. Take `C[N+]1(C)CCC(=C(c2ccccc2)c2ccccc2)CC1`: the maximum recommended daily dose (mmol/kg-bw/day) (TherapeuticCategory: anticholinergic) is 0.0341. Turning to `N=C(N)c1ccc(/C=C/c2ccc(C(=N)N)cc2O)cc1`, the maximum recommended daily dose (mmol/kg-bw/day) (TherapeuticCategory: antiprotozoal) is 0.0149. Take `O=c1c(CO)c/c(=N/Nc2ccc(S(=O)(=O)O)c3ccccc23)c(=O)/c1=N/Nc1ccc(S(=O)(=O)O)c2ccccc12`: the maximum recommended daily dose (mmol/kg-bw/day) (TherapeuticCategory: food additive) was 0.0023.

Take `C[C@]12CC[C@@H]3c4ccc(O)cc4CC[C@H]3[C@@H]1CC[C@@H]2OC(=O)CCC1CCCC1`: the maximum recommended daily dose (mmol/kg-bw/day) (TherapeuticCategory: estrogen) is 0.00126. Consider `N=C(N)N1CCc2ccccc2C1`, for which the maximum recommended daily dose (mmol/kg-bw/day) under setting [2] was 0.0285. As for `Nc1c(Br)cc(Br)cc1CNC1CCC(O)CC1` (stereo not given), where the note is “TherapeuticCategory: expectorant”, the maximum recommended daily dose (mmol/kg-bw/day) was 0.00529. `CCOC(=O)C1=C(C)NC(C)=C(C(=O)OC)C1c1cccc(Cl)c1Cl` (stereo not given): the maximum recommended daily dose (mmol/kg-bw/day) under setting [4] was 0.000867. In the case of `COc1ccc(CC2c3cc(OC)c(OC)cc3CC[N+]2(C)CCC(=O)OCCCCCOC(=O)CC[N+]2(C)CCc3cc(OC)c(OC)cc3C2Cc2ccc(OC)c(OC)c2)cc1OC` (stereo not given), the maximum recommended daily dose (mmol/kg-bw/day) under setting [1] is 0.000402. For the compound `O=C1CN=C(c2ccccc2)c2cc(Cl)ccc2N1CC1CC1`, under setting [6], the maximum recommended daily dose (mmol/kg-bw/day) was 0.00308. `C[C@@H]1C[C@H]2[C@@H]3CCC4=CC(=O)C=C[C@]4(C)[C@@]3(Cl)[C@@H](O)C[C@]2(C)[C@@]1(OC(=O)c1ccco1)C(=O)CCl`: the maximum recommended daily dose (mmol/kg-bw/day) (TherapeuticCategory: topical anti inflammatory) was 2.88e-05. Take `C=C1/C(=C/C=C2/CCC[C@]3(C)[C@@H]([C@H](C)CCCC(C)C)CC[C@@H]23)C[C@@H](O)C[C@@H]1O`: the maximum recommended daily dose (mmol/kg-bw/day) (TherapeuticCategory: vitamin D source) is 7.49e-06. On to `CCOc1cc(CC(=O)N[C@@H](CC(C)C)c2ccccc2N2CCCCC2)ccc1C(=O)O`, for which the maximum recommended daily dose (mmol/kg-bw/day) (TherapeuticCategory: antidiabetic) is 0.00059. For `COc1cc([C@@H]2c3cc4c(cc3C(O[C@@H]3O[C@@H]5CO[C@@H](C)O[C@H]5[C@H](O)[C@H]3O)C3COC(=O)[C@@H]32)OCO4)cc(OC)c1O` (stereo not given in full), under setting [7], the maximum recommended daily dose (mmol/kg-bw/day) was 0.00459. As to `CNS(=O)(=O)Cc1ccc2[nH]cc(CCN(C)C)c2c1`, the maximum recommended daily dose (mmol/kg-bw/day) (TherapeuticCategory: antimigraine) is 0.000677.
